For one data set, the target named is E. coli WbbL (Escherichia coli, UniProt P36667). Nature of the data set: In vitro inhibition assay of E. coli WbbL with monosaccharides and compound 2. The data set is classed as biochemical. Conditions: 250 µM dTDP-β-L-Rha, 1 mM GlcNAc-PP-undecaprenol. As for the experimental part:
Primers were purchased from Invitrogen and sequencing was completed by GENEWIZ (Azenta) or EtonBio. Chemicals were purchased from Sigma Aldrich, CarboSynth, Fisher Scientific, and Cayman without further purification. 1H, 13C, and 31P NMR spectra were recorded on a Bruker Avance III 400, 500, or 600 MHz instrument. All spectra were calibrated using residual non-deuterated solvent as an internal reference and processed using MestReNova (authorized to NYU). Gel filtration purification and analyses was performing using at AKTA pure 15 L instrument (UNICORN™ software, GE Healthcare). HRMS analyses were acquired on an Agilent 6224 Accurate-Mass time-of-flight LC/MS (LC-TOF) spectrometer equipped with an electrospray ionization (ESI) source with an autosampler. GraphPad Prism software 9.0 was used for all plotting and data analysis unless otherwise noted. Statistical significance of grouped data was assessed using paired t-tests in Prism. For the IC50 calculation, data were fit in Prism using the equation log(inhibitor) versus response (three parameters): y = bottom + (top-bottom)/(1+10^(X-log IC50)) based on the assumption the Hill slope would be 1, as predicted by ITC results with n ~ 1 for donor ligands. Data was normalized to controls without enzyme and with no inhibitor added. Confidence intervals were calculated based on the standard error. 1M TEAB buffer was prepared by suspending triethylamine (1 mol, 139 mL) in water (700 mL) and passing carbon dioxide (from evaporated dry ice) through the mixture until the pH=7.5. The buffer was diluted to 1L and stored as a stock solution at 4 °C. Prior to use it was diluted to 50 mM in deionized H2O […]
Methods for protein and cellular biochemistry/bioinformatics used in this study.
Bioinformatic approach to identify Thermus thermophilus RfbF as a putative glycolipid RT.
The Carbohydrate-Active Enzymes Database (CAZy.org) was used to identify thermophilic organisms with annotated glycosyltransferases (GTs).11-12 Genes annotated as wbbL have been experimentally shown to encode dTDP-rhamnosyltransferases that transfer L-Rha onto N-acetyl--a-D-glucosamine-1-diphospholipid acceptors.13-14 In Shigella flexneri, the protein encoded by rfbF was noted to carry out the same biochemical activity as WbbL based on genetic and LPS analyses.15-16 Both E. coli WbbL and S. flexneri RfbF belong to the GT2 family. A CAZy search for rfbF and wbbL was performed in the genomes of Gram-negative extreme thermophiles, which […]
(GenBank: AAS80876.1), which had not yet been biochemically characterized. Protein ANalysis […]
thermodynamic values were evaluated using ITCRun software (TA Instruments) and fit with a […]
Specific activities were determined by modification of the protocol outlined by Li et al. […]

Data set [1] deals with E. coli cells with or without wbbL. The experiment in a line: Growth inhibition / toxicity of 2 with E. coli (OD600). The conditions noted are these: ~2 mM / low millimolar concentrations of 2, E. coli +/- wbbL.
For data set [2], the system named is WbbL-dependent O-Ag synthesis in E. coli expressing wbbL. The data set is classed as cell-based, Escherichia coli.
A further data set addresses T. thermophilus RfbF (Thermus thermophilus, UniProt Q72KB9). Nature of the data set: Isothermal titration calorimetry (ITC) binding measurements with RfbF. Conditions: ITC.
Another data set deals with crude Mtb WbbL. Conditions: cited from earlier work.
Setting [3] is: 25 °C, ligand titrated into 110 µM RfbF.

Values joined by “and” are separate entries in the source; they are usually repeats but may differ in a detail not shown here. Equal values may be shown once. Read-outs that look alike come from different tables or passages of the source.

Broadly, the inhibition is the share of the control response that was lost under treatment. High values mean a strong effect, low ones a weak effect. As a reminder, the Kd is the free concentration of one partner at which half of the binding sites on the other are occupied at equilibrium, for simple one-to-one binding. One may read the Km as the substrate concentration at which the rate is half of its maximum.

Sequence of E. coli WbbL (P36667 whole entry, looked up): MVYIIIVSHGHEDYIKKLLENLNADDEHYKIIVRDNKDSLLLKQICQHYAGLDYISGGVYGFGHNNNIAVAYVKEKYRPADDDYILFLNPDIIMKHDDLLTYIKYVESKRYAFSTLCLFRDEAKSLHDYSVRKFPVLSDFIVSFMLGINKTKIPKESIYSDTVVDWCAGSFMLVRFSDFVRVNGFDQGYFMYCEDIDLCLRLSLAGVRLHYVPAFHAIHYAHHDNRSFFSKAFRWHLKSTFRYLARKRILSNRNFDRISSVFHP
Sequence of T. thermophilus RfbF (Q72KB9 entry or part of it): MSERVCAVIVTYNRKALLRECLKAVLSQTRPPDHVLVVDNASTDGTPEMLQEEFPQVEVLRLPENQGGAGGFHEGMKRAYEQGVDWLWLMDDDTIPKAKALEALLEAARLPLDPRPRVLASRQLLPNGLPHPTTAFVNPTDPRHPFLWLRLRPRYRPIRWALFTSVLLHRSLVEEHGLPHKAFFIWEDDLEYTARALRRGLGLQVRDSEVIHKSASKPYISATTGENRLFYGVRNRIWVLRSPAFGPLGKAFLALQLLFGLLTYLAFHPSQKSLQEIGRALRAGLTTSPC

Turning to `C[C@@H]1NC[C@H](O)[C@H](O)[C@H]1O` [compound 2, 1,5-dideoxy-1,5-imino-L-rhamnitol], the IC50 on E. coli WbbL (0.0101 mg/mL E. coli WbbL, 95% confidence interval, read-out: half maximal inhibitory concentration (IC50)) is ~3000 µM and 3160 µM. For the same compound, the inhibition at 5000 µM against E. coli WbbL (5 mM inhibitor, 8 min) is about 53%. The “toxicity to E. coli (growth, OD600)” value in data set [1] was “not toxic”. For the same compound, the “reduction of O-Ag levels by densitometry” value in data set [2] (E. coli expressing wbbL grown with 2 versus untreated, silver stain / anti-O16 blot of purified LPS) was about 40%. Moreover, the “reduction of LPS produced versus untreated cells” value in data set [2] (E. coli expressing wbbL grown with ~2 mM 2, equivalent number of cells, mass of extracted LPS) is on record as over 50%. Moreover, the “binding to RfbF by ITC (in words)” value at T. thermophilus RfbF (ligand titrated into 110 µM RfbF) is “no measurable binding”. The Kd at T. thermophilus RfbF (KD (beyond measurable limit), 5-10 mM ligand titrated into 110 µM RfbF) is over 1000 µM.

As to `Cc1cn(C2CC(O)C(COP(=O)(O)OP(=O)(O)OC3OC(C)C(O)C(O)C3O)O2)c(=O)[nH]c1=O` [dTDP-β-L-Rha, reference compound], the Km with crude Mtb WbbL is about 35 µM. In addition, at T. thermophilus RfbF (setting [3]), the ΔG is given as -6.77 (.38) kcal/mol, the ΔH is -8.68 (0.59) kcal/mol and the ΔS was -6.43 (0.68) cal/mol·K. The Kd on T. thermophilus RfbF (25 °C, ligand titrated into 110 µM RfbF, one-site model, spread = SD, triplicate, read-out: KD) is about 8 µM. The compound further yielded a Kd at T. thermophilus RfbF (KD, 25 °C, ligand titrated into 110 µM RfbF, one-site model, spread = SD, triplicate) of 8.31 ± 3.66 µM.

(Values after publication PMC10375533, “Preference of Bacterial Rhamnosyltransferases for 6-Deoxysugars Reveals a Strategy To Deplete O-Antigens” (Journal of the American Chemical Society, 2023).)
